Reference: patent publication US12605446B2, “PSMA-targeted immunotherapies for cancers” (THE METHODIST HOSPITAL, priority 2020, dated 2026)
Residue numbers refer to the chain shown, from its start.

Columns and labels:
[1] = system: PSMA expression in VCaP cells; experiment: PSMA expression after antiandrogen or androgen treatment, VCaP; assay type: cell-based
[2] = system: PSMA expression in LNCaP cells; experiment: PSMA expression after antiandrogen or androgen treatment, LNCaP; assay type: cell-based
[3] = system: PSMA-positive LNCaP cells; experiment: Flow cytometric binding of anti-PSMA mAbs to prostate cancer cells; conditions: mixed PC3 and LNCaP cells, 20 μg antibody, FITC anti-mouse IgG secondary antibody
Description: PC3 cells and […] cells are mixed and incubated with 20 μg of J591, our home-made mAb #1352, or […] as a negative control. Next, the cells were incubated with FITC anti-mouse IgG secondary antibody (Biolegend, cat #406001), followed by flow cytometric analysis.
(A2). Development of anti-PSMA mAbs and construction of PSMA-CARs. The process of PSMA-CAR T cell therapy development is shown in the flowchart (FIG. 13A). PSMA extracellular domain was produced in baculovirus-insect cell expression system as reported. Purified recombinant PSMA protein was used to immunized BALB/c mice. Out of 38 ELISA-positive hybridomas, seven were confirmed by flow cytometry for their antibody-specific binding to PSMA-positive LNCaP and VCaP cells, but not to PSMA-negative PC3 cells.

[4] = system: PSMA-positive prostate cancer cell lines LNCaP and VCaP; experiment: Murine FCγRIII ADCC reporter bioassay; assay type: cell-based; conditions: in vitro ADCC assay

For `C[C@]1(O)CC[C@H]2[C@@H]3CCC4=CC(=O)CCC4=C3C=C[C@@]21C` [R1881], the “PSMA mRNA levels” value ([1]; 10 nM R1881) was “reduced” and the “PSMA mRNA levels” value ([2]; 10 nM R1881) was “reduced”.

In the case of `CNC(=O)c1ccc(N2C(=S)N(c3ccc(C#N)c(C(F)(F)F)c3)C(=O)C2(C)C)cc1F` [enzalutamide], the “PSMA mRNA levels” value ([1]; 10 μM enzalutamide, 48 hours) is reported as “increased”, the PSMA protein levels ([1]; Enzalutamide, 72 hrs) is reported as “increased” and the “PSMA mRNA levels” value ([2]; 10 μM enzalutamide, 48 hours) is reported as “increased”. The PSMA protein levels ([2]; Enzalutamide, 72 hrs) was “increased”.

B1: #1377: anti-PSMA mouse monoclonal antibody of hybridoma #1377; VH SEQ ID NO: 16, VL SEQ ID NO: 18 (antibody, V domains shown)
VH: VQLQQPGAALVRPGASVRLSCKASGYSFTYYWMNWVMQRPGQGLEWIGMIHPSDSETRLSQKFRDKATLTVDKSSSTVYMQLNSPTSDDSAVYYCARDGNFPYYALDYWGQGTSVTVSS
VL: DVVLTQAPLSLPVSLGDQASISCRSSQSLEYSNGNTYLHWYLQKPGQSPELLIYTVSNRFSGVPDRFSGSGSGTDFTLKIHRVEAEDLGVYFCSQSTHVPTFGGGTKLEIKR
With B1 the “binding to LNCaP cells by flow cytometry” value [3] was “bind to LNCaP cells with high affinity”.

B2: #1352: anti-PSMA mouse monoclonal antibody of hybridoma #1352; VH SEQ ID NO: 24, VL SEQ ID NO: 26 (antibody, V domains shown)
VH: VKLQQSGPELEKPGASVKISCKASGYSFTGYNVNWVKQSNGKSLEWIGNIDPYHGGTTYNQKFEAKATLTVDKSSSTAYMQLKSLTSEDSAVYYCARSSRFDYWGQGTTLTVSS
VL: DIVMTQSHKFMSTSVGDRVNITCKASQDVGTAVAWYQQKPGQSPKFLIYWASTRHTGVPDRFTGSGSGTDFTLTISNVQSEDLADYFCHQYTSYPFTFGSGTKLEMKR
In the case of B2, the “induction of ADCC activity” value [4] is reported as “most potent” and the “binding to LNCaP cells by flow cytometry” value [3] is reported as “detected as the FITC positive cells”.

B3: #219: anti-PSMA mouse monoclonal antibody of hybridoma #219; VH SEQ ID NO: 12, VL SEQ ID NO: 14 (antibody, V domains shown)
VH: B2 VH with K2Q, I19M, K37R, S39N, Y53L, E64K, K73R, M80L, S84N
VL: B2 VL with F46L, Y91F, K103S
For B3, the “binding to LNCaP cells by flow cytometry” value [3] was “bind to LNCaP cells with high affinity”.

B4: #1207: anti-PSMA mouse monoclonal antibody of hybridoma #1207; VH SEQ ID NO: 28, VL SEQ ID NO: 30 (antibody, V domains shown)
VH: VKLQQSGPGLVKPSQSLSLTCAVTGYSITSDYAWNWIRKFPGNKLEWMGYISYSGRTTYNPSLESRISITRDTSKNQFFLQLNSVTTEDTATYYCARCYYGSSSRWYGMDYWGRGTSVAVSS
VL: IVLTQSPAIMSASPGVKVTMTCRASSSVDSSYLHWYQQKSGASPQVWIYSTSNLASGVPARFSGSGSGTSYSLTISSVEAEDAATYYCQQYSGYPLTFGGGTKLEIKR
In the case of B4, the “binding to LNCaP cells by flow cytometry” value [3] is reported as “bind to LNCaP cells with high affinity”.

B5: #1366: anti-PSMA mouse monoclonal antibody of hybridoma #1366; VH SEQ ID NO: 20, VL SEQ ID NO: 22 (antibody, V domains shown)
VH: VKLQESGPGLVAPSQSLSITCTVSGFSLTDYGVSWIRQPPGKGLEWLGVIWSDGNTYYNSPLKSRLSINKDNSKSQVFLKMNSLQTDDSAMYYCARHKVYTMDYWGQGTSVTVSS
VL: B4 VL with I1T, V16E, D29S, G41S, Q45K, V46L, S50R, V78L, G100A, I106L
In the case of B5, the “binding to LNCaP cells by flow cytometry” value [3] is reported as “bind to LNCaP cells with high affinity”.
